Entries after “also recorded” stand apart in the source; their conditions may differ. Read-outs that look alike come from different tables or passages of the source. One block for each molecule: values may come before it.
Experiments:
[1] = tested on: HT-29, SF-268, PC-3, MDA-MB-231; test: Average GI50 over the four cell lines, method (a); assay type: cell-based; conditions: method (a); values > 30 not considered; read-out: Average (GI50 μM)
Method: (§1) Compounds were dissolved at 10 mM in DMSO. Dilution in vehicle to concentrations of 30, 10, 3, 1 and 0.3 μM were prepared immediately before assays. Depending on the cell line's growth characteristics, 4000-10000 cells were plated in two 96-wells pates (day 0) and incubated for 16 hours. The following day, propidium iodide was added to one of the two plates and fluorescence measured (Tz). Test compounds were added to the second plate, as well as vehicle control, and cells further incubated for 96 hours. Each compound was tested at each concentration and in triplicates. The equivalent cell number was determined after adding propidium iodide by measuring the signal by fluorescence (C for control).

C6 glioblastoma = test: In vivo efficacy in glioma model, second series (treatment started at day 10); set-up: species or system Mus musculus nude mice; conditions: for Tumor volume (mm^3) (mean ± SEM): Q1 × 5; for % Inhibition: Q1 × 5, vs saline
Method: Animal experiments were performed according to ethical guidelines of animal experimentation (Charte du comité d'éthique du CNRS, juillet 2003) and the English guidelines for the welfare of animals in experimental neoplasia (WORKMAN, P., […], P., BALKWILL, F., et al. (1998). United Kingdom Coordinating Committee on Cancer Research (UKCCCR) Guidelines for the welfare of animals in experimental neoplasia (Second Edition, July 1997; British Journal of Cancer, 77:1-10). Any dead or apparently sick mice were promptly removed and replaced with healthy mice. Sick mice were euthanized upon removal from the cage. Animals were maintained in rooms under controlled conditions of temperature (23±2° C.), humidity (45±5%), photoperiodicity (12 hrs light/12 hrs dark) and air exchange. Animals were housed in polycarbonate cages (5/single cage) that were equipped to provide food and water. Animal bedding consisted of sterile wood shavings that were replaced every other day. Food was provided ad libitum, being placed in the metal lid on the top of the cage. Autoclaved tap water was provided ad libitum. Water bottles were equipped with rubber stoppers and sipper tubes. Water bottles were cleaned, sterilized and replaced once a week. Two different numbers engraved on two earrings identified the animals. Each cage was labeled with a specific code.
Tumor Cell Line: The C6 cell line was cloned from a rat glial tumor induced by N-nitrosomethyurea (NMU) according to Premont et al. (Premont J, Benda P, Jard S., [3H] norepinephrine binding by rat glial cells in culture. Lack of correlation between binding and adenylate cyclase activation. Biochim Biophys Acta. 1975 Feb. 13;381(2):368-76.) after series of alternate culture and animal passages. Cells were grown as adherent monolayers at 37° C. in a humidified atmosphere (5% CO2, 95% air). The culture medium was DMEM supplemented with 2 mM L-glutamine and 10% fetal bovine serum. For experimental use, tumor cells were detached from the culture flask by a 10 min treatment with trypsin-versen. The cells were counted in a hemocytometer and their viability assessed by 0.25% trypan blue exclusion.
Preparation of the Test Article: For the test article, the following procedure was followed for reconstitution (performed immediately preceding injection). The vehicle consisted of a mixture of benzyl alcohol (1.5%), ethanol (8.5%), propylene glycol (27%), PEG 400 (27%), dimethylacetamide (6%) and water (30%). The vehicle solution was first vortexed in order to obtain a homogeneous liquid. 0.6 mL of the vortexed vehicle solution was added to each vial containing the test article (Compound 1). Vials were mixed thoroughly by vortexing for 1 minute and inverted and shaken vigorously. Vials were mixed again prior to injection into each animal.
Animal Inoculation with tumor cells: Experiment started at day 0 (D0). On D0, mice received a superficial intramuscular injection of C6 tumor cells (5×10^5 cells) in 0.1 mL of DMEM complete medium into the upper right posterior leg.
In a second series of experiments, treatment started at day 10 following inoculation of C6 cells when tumors became palpable (around 100 to 200 mm^3). Treatment was repeated daily for 5 consecutive days. On the day of the treatment, each mouse was slowly injected with 100 μL of Compound 1 by i.p. route. Mice of group 1 were treated daily with saline isosmotic solution. Mice of group 2 were treated daily with the vehicle solution. Mice of group 3 were treated daily with 20 mg/kg of Compound 1. Mice of group 4 were treated daily with 30 mg/kg of Compound 1. Mice were treated until the tumor volume of the saline-treated control mice (group 1) reached around 4 cm^3. Tumor volume was measured every second day until the end of the treatment using callipers. […] An asterisk in the P value column of Table 20 indicates a statistically significant value, while “ns” signifies not significant.

36 cancer cell lines = test: Anticancer activity profiling against 36 cell lines (IC50); assay type: cell-based
Method: as §1

[2] = tested on: rat glioblastoma tumor (C6) xenografts; test: Antitumor efficacy against rat glioblastoma tumor (C6) xenografts; assay type: in vivo, female swiss nude mice; conditions: intravenous, 75 mg/kg (qd5/2/qd5)
From the text: Antitumor efficacy of Compound 2 against rat glioblastoma tumor (C6) xenografts in female swiss nude mice was accomplished as described above.

GI50 [1]: 4.23 µM
SMILES: CC(C)=CCC/C(C)=C/CC/C(C)=C/CN1C(=O)c2cccc(O)c2Nc2c(O)cc(O)cc21 [Compound 1, 10-farnesyl-4,6,8-trihydroxy-5,10-dihydrodibenzo[b,e][1,4]diazepin-11-one]
Tumor volume (mm^3) (mean ± SEM) (C6 glioblastoma; 20 mg/kg i.p.): 1,721.5 ± 374.79 mm^3
% Inhibition (C6 glioblastoma; 20 mg/kg i.p.): 60.5%
Tumor volume (mm^3) (mean ± SEM) (C6 glioblastoma; 30 mg/kg i.p.): 1,131.6 ± 525.21 mm^3
% Inhibition (C6 glioblastoma; 30 mg/kg i.p.): 74.1%
Histological analysis of tumor sections (C6 glioblastoma; 20-30 mg/kg): cell density of tumor treated with Compound 1 appears decreased; also recorded: cell density was decreased and the nuclei of remaining tumor cells appeared larger and pycnotic
mean value of the tumor volume of all treated groups (C6 glioblastoma; 20-30 mg/kg i.p., compared to the saline group): significantly reduced

SMILES: CC(C)=CCC/C(C)=C/CC/C(C)=C/CN1C(=O)c2cccc(O)c2N(C)c2c(O)cc(O)cc21 [Compound 2, 10-farnesyl-4,6,8-trihydroxy-5-methyl-5,10-dihydro-dibenzo[b,e][1,4]diazepin-11-one]
levels of IC50 values (36 cancer cell lines; 36 tumor types): low micromolar to nanomolar
IC50 (36 cancer cell lines; Bladder, cell line 1218L (Xenograft), urothelial adeno ca, read-out: IC50): 166 nM
IC50 (36 cancer cell lines; Bladder, cell line T24 (ATCC), transitional cell ca, read-out: IC50): 127 nM
IC50 (36 cancer cell lines; CNS, cell line SF268 (NCI), read-out: IC50): 10 nM
IC50 (36 cancer cell lines; Gastric, cell line 251L (Xenograft), adeno ca, pd, read-out: IC50): 105 nM
IC50 (36 cancer cell lines; Head & Neck, cell line 536L (Xenograft), hypopharynx ca, read-out: IC50): 181 nM
IC50 (36 cancer cell lines; Homo sapiens, 22Rv1, Prostate, cell line 22RV1 (ATCC), adeno ca, md, read-out: IC50): 142 nM
IC50 (36 cancer cell lines; Homo sapiens, CNS cell, CNS, cell line 498NL (Xenograft), glioblastoma, read-out: IC50): 176 nM
IC50 (36 cancer cell lines; Homo sapiens, DU-145, Prostate, cell line DU145 (NCI), adeno ca, md, read-out: IC50): 158 nM
IC50 (36 cancer cell lines; Homo sapiens, HCT-116, Colon, cell line HCT116 (NCI), adeno ca, pd, read-out: IC50): 156 nM
IC50 (36 cancer cell lines; Homo sapiens, HT-29, Colon, cell line HT29 (NCI), adeno ca, pd, read-out: IC50): 223 nM
IC50 (36 cancer cell lines; Homo sapiens, LNCaP, Prostate, cell line LNCAP (DSMZ), adeno ca, md, read-out: IC50): 485 nM
IC50 (36 cancer cell lines; Homo sapiens, MCF7, Mammary, cell line MCF7 (NCI), mamma ca, read-out: IC50): 276 nM
IC50 (36 cancer cell lines; Homo sapiens, NCI-H460, Lung, cell line H460 (NCI), large cell ca, read-out: IC50): 366 nM
IC50 (36 cancer cell lines; Homo sapiens, OVCAR-3, Ovarian, cell line OVCAR3 (NCI), adeno ca, md, read-out: IC50): 139 nM
IC50 (36 cancer cell lines; Homo sapiens, PANC-1, Pancreas, cell line PANC1 (ATCC), read-out: IC50): 125 nM
IC50 (36 cancer cell lines; Homo sapiens, PC-3M, Prostate, cell line PC3M (NCI), adeno ca, pd, read-out: IC50): 114 nM
IC50 (36 cancer cell lines; Lung, cell line 289L (Xenograft), adeno ca, read-out: IC50): 1550 nM
IC50 (36 cancer cell lines; Lung, cell line 526L (Xenograft), adeno ca, read-out: IC50): 104 nM
IC50 (36 cancer cell lines; Lung, cell line 529L (Xenograft), large cell ca, read-out: IC50): 127 nM
IC50 (36 cancer cell lines; Lung, cell line 629L (Xenograft), adeno ca, read-out: IC50): 164 nM
IC50 (36 cancer cell lines; Lung, cell line 1121L (Xenograft), large cell ca, read-out: IC50): 125 nM
IC50 (36 cancer cell lines; Mammary, cell line 401NL (Xenograft), pap adeno ca, wd, read-out: IC50): 194 nM
IC50 (36 cancer cell lines; Melanoma, cell line 276L (Xenograft), mm, amelanotic, read-out: IC50): 1950 nM
IC50 (36 cancer cell lines; Melanoma, cell line 394NL (Xenograft), mm, amelanotic, pd, read-out: IC50): 20 nM
IC50 (36 cancer cell lines; Melanoma, cell line 462NL (Xenograft), mm, amelanotic, read-out: IC50): 978 nM
IC50 (36 cancer cell lines; Melanoma, cell line 514L (Xenograft), mm, melanotic, read-out: IC50): 110 nM
IC50 (36 cancer cell lines; Melanoma, cell line 520L (Xenograft), mm, melanotic, read-out: IC50): 85 nM
IC50 (36 cancer cell lines; Ovarian, cell line 899L (Xenograft), pap serous ca, md, read-out: IC50): 238 nM
IC50 (36 cancer cell lines; Ovarian, cell line 1619L (Xenograft), adeno ca, md, read-out: IC50): 579 nM
IC50 (36 cancer cell lines; Pancreas, cell line 1657L (Xenograft), adeno ca, md, read-out: IC50): 1780 nM
IC50 (36 cancer cell lines; Pleuramesot., cell line 1752L (Xenograft), pleuromesothelioma, read-out: IC50): 1500 nM
IC50 (36 cancer cell lines; Renal, cell line 393NL (Xenograft), hypernephroma, wd, read-out: IC50): 527 nM
IC50 (36 cancer cell lines; Renal, cell line 486L (Xenograft), hypernephroma, pd, read-out: IC50): 1140 nM
IC50 (36 cancer cell lines; Renal, cell line 944L (Xenograft), hypernephroma, read-out: IC50): 230 nM
IC50 (36 cancer cell lines; Renal, cell line 1781L (Xenograft), renal ca, read-out: IC50): 172 nM
IC50 (36 cancer cell lines; Uterus, cell line 1138L (Xenograft), carcinosarcoma, wd, read-out: IC50): 139 nM
IC50 (36 cancer cell lines; mean of all 36 cell lines, read-out: IC50, Mean of all cell lines): 407 nM
Antitumor efficacy [2]: Significant efficacy
